Measured values: US8420692B1, “Heterocyclic and carbonate derivatives of NDGA and their use as new anti-HIV and anti-cancer agents” (The Johns Hopkins University, priority 2006, dated 2013)
Like-named read-outs stand apart in the source and are kept apart here.

Legend:
[1] = test system: HIV Tat-regulated transactivation; assay: cells; assay type: cell-based; conditions: for Inhibition (%) of HIV Tat-regulated Transactivation in COS Cells: average of three experiments; for IC50: read-out: IC50, HIV Tat-regulated transactivation
Experimental: The COS cells were co-transfected with a Tat-producing plasmid and a plasmid containing the HIV LTR linked to the SeAP reporter gene. Transfected cells were treated with various concentrations of 5b P4N. After 48 h, aliquots of media were removed and analysis of SeAP activity was performed. The percent inhibition of SeAP activity by 5b P4N ? was calculated in comparison with the percent of growth inhibition of untransfected COS cells by P4N ?
The medium used for dilution of compounds and maintenance of cultures during the assay was the same as described above. Cultures were maintained in disposable tissue culture labware at 37° C. in a humidified atmosphere of CO2 (5.0%) in air. Compounds were dissolved as stock solutions in water or dimethyl sulfoxide (DMSO) at the concentration of 10 mM. The stock solutions were diluted with H2O (5a-d) or DMSO (6a,b and 7) and dilute by medium to the desired concentration by a 30-s vortex just before addition into the cell culture. Triplicate cell samples were seeded at density of ˜1.5×10^4 cell per well in Libro 24-well flat-bottom culture dishes (17-mm diameter), which were incubated for 24 h until they reached 50% confluence. The cells were cotransfected by the calcium phosphate procedure with DNA from plasmids pBC12/CMV/t2 (coding for Tat function, 0.20 μg/well) and pBC12/HIV/SeAP (0.40 μg/well). Cells and DNAs were kept in contact for 6.0 h; then the medium was aspirated and replaced by 500 μL of medium containing the test compound. The compound-treated cells were then incubated for additional 48 h. At the end of incubation, an aliquot of cell culture medium was removed and SeAP activities were analyzed by spectrametric method.^20 The sample of culture medium were heated at 65° C. for 5.0 min to inactivate endogenous phosphatases selectively (SeAP is thermal stable). The buffer solution of 2×SeAP (100 μL, 1.0 M diethanolamine, pH 9.8; 0.50 mM MgCl2; 10 mM L-homoarginine) was added to the culture medium sample (100 μL) in a 96-well flat-bottom culture dish (Corning). Then, the substrate solution ([…], 120 mM, p-nitrophenyl phosphate dissolved in 1×SeAP buffer) was dispensed into each well containing the reaction mixture. The absorbance at wavelength 405 nm specific for the hydrolysis product was read at 2.5 min intervals at 37° C. over the course of 60 min on an EL340i microplate reader (Bio-tek Instruments) with 5 s automatic shaking before each reading.
Two plasmid constructs^19 were used to test the effect of synthesized NDGA derivatives on Tat-regulated HIV transactivation as described previously.^12,13,19 The plasmid constructs included a cytomegalovirus (CMV) promoter driven tat gene and SP1 regulated HIV LTR promoter driven reporter gene (i.e., SeAP). A standard SeAP assay in the absence of drug was initially run to find out efficiency of transfection.

[2] = Stability in aqueous solution (time dependent UV spectra); assay type: physicochemical
Experimental: FIG. 1: Stability of Two NDGA Derivatives G4N and P4N(HCl salts) in Aqueous Solution. Time Dependent Changes in UV spectra showing (a) G4N is unstable and (b) meso-2,3-dimethyl-1,4-bis(3,4-[2-piperidino)ethoxyphenyl])butane (P4N) (compound 5b in Scheme 1) (day 1, 2, 8, 13, 28) is stable in Milli-Q water after 28 days at 20° C.
The new NDGA derivatives (Scheme 1) were found stable in aqueous solution; >99% of these compounds remained intact after 28 days (see FIG. 1(b)). In a sharp contrast, >96% G4N (4) decomposed in aqueous solution within 24 h (see FIG. 1(a)).

[3] = test system: HIV Tat-regulated transactivation; conditions: values from references 9 and 12; read-out: IC50, Tat-regulated SeAP production (reference compounds); cited from earlier work
[4] = COS cells, SeAP, mean of triplicate determinations
[5] = Human immunodeficiency virus 1, COS, read-out: Inhibition (%) of HIV Tat-regulated Transactivation in COS Cells

Row | Structure (SMILES) | Inhibition (%) of HIV Tat-regulated Transactivation in COS Cells ([1]; 0.10 μM) | Inhibition (%) of HIV Tat-regulated Transactivation in COS Cells ([1]; 0.25 μM) | Inhibition (%) of HIV Tat-regulated Transactivation in COS Cells ([1]; 0.50 μM) | Inhibition (%) of HIV Tat-regulated Transactivation in COS Cells ([1]; 1.0 μM) | Inhibition (%) of HIV Tat-regulated Transactivation in COS Cells ([1]; 2.5 μM) | Inhibition (%) of HIV Tat-regulated Transactivation in COS Cells ([1]; 5.0 μM) | Inhibition (%) of HIV Tat-regulated Transactivation in COS Cells ([1]; 10 μM) | Inhibition (%) of HIV Tat-regulated Transactivation in COS Cells ([1]; 20 μM) | Inhibition (%) of HIV Tat-regulated Transactivation in COS Cells ([1]; 40 μM) | Inhibition (%) of HIV Tat-regulated Transactivation in COS Cells ([1]; 80 μM) | Inhibition (%) of HIV Tat-regulated Transactivation in COS Cells ([1]; 100 μM) | IC50 [1, 4] | IC50 [3] | further results
1 | C[C@H](Cc1ccc(OCCN2CCCC2)c(OCCN2CCCC2)c1)[C@@H](C)Cc1ccc(OCCN2CCCC2)c(OCCN2CCCC2)c1.Cl.Cl.Cl.Cl [Compound 5a, meso-2,3-Dimethyl-1,4-bis(3,4-[2-(pyrrolidino)ethoxyphenyl])butane Tetrakishydrochloride Salt] | 18.1% | 15.4% | 27.2% | 19.6% | 31.0% | 14.1% | 26.3% | 59.1% | 94.8% | 97.1% | 100% | 17.2 µM | – | –
2 | C[C@H](Cc1ccc(OCCN2CCOCC2)c(OCCN2CCOCC2)c1)[C@@H](C)Cc1ccc(OCCN2CCOCC2)c(OCCN2CCOCC2)c1.Cl.Cl.Cl.Cl [Compound 5c, meso-2,3-Dimethyl-1,4-bis(3,4-[2-(morpholino)ethoxyphenyl])butane Tetrakishydrochloride Salt] | 5.0% | 16.5% | 9.9% | 8.1% | 4.6% | 13.3% | 25.4% | 58.9% | 86.0% | 96.8% | 100% | 17.3 µM | – | –
3 | C[C@H](Cc1ccc(OCCCN2CCOCC2)c(OCCCN2CCOCC2)c1)[C@@H](C)Cc1ccc(OCCCN2CCOCC2)c(OCCCN2CCOCC2)c1.Cl.Cl.Cl.Cl [Compound 5d, meso-2,3-Dimethyl-1,4-bis(3,4-[3-(morpholino)propoxyphenyl])butane Tetrakishydrochloride Salt] | 15.0% | 15.9% | 10.6% | 9.5% | 52.7% | 89.5% | 96.0% | 99.9% | 99.8% | 100% | 89.5% | 2.41 µM | – | –
4 | C[C@H](Cc1ccc(OC(=O)N2CCCCC2)c(OC(=O)N2CCCCC2)c1)[C@@H](C)Cc1ccc(OC(=O)N2CCCCC2)c(OC(=O)N2CCCCC2)c1 [Compound 6a, meso-2,3-Dimethyl-1,4-bis[3,4-(phenylpiperidine-1-carboxylate)]butane] | 0% | 3.5% | 5.8% | 11.7% | 46.2% | 78.6% | 84.0% | 86.1% | 83.8% | 90.1% | 89.8% | 2.79 µM | – | –
5 | COC(=O)Oc1ccc(C[C@@H](C)[C@@H](C)Cc2ccc(OC(=O)OC)c(OC(=O)OC)c2)cc1OC(=O)OC [Compound 6b, meso-2,3-Dimethyl-1,4-bis[3,4-(methylphenyl carbonate)]butane] | 9.8% | 12.3% | 16.0% | 13.1% | 15.1% | 38,0% | 51,6% | 58.4% | 70.8% | 93.4% | 88.9% | 9.41 µM | – | –
6 | C[C@H](Cc1ccc2oc(=O)oc2c1)[C@@H](C)Cc1ccc2oc(=O)oc2c1 [Compound 7, meso-2,3-Dimethyl-1,4-bis(benzo[d][1,3]-dioxol-2-one)butane] | – | – | – | – | – | – | – | – | – | – | – | – | – | IC50 ([1]; Human immunodeficiency virus 1, COS): 8.54 µM; inhibition at 0.1 µM [1, 5]: 7.5%; inhibition at 0.25 µM [1, 5]: 18.1%; inhibition at 0.5 µM [1, 5]: 4.2%; inhibition at 1 µM [1, 5]: 5.9%; inhibition at 2.5 µM [1, 5]: 23.7%; inhibition at 5 µM [1, 5]: 47.1%; inhibition at 10 µM [1, 5]: 51.2%; inhibition at 20 µM [1, 5]: 68.8%; inhibition at 40 µM [1, 5]: 85.7%; inhibition at 80 µM [1, 5]: 96.3%; inhibition at 100 µM [1, 5]: 91.6%; melting point: 172.6 to 173.4 °C
7 | C[C@H](Cc1ccc(OC(=O)CN(C)C)c(OC(=O)CN(C)C)c1)[C@@H](C)Cc1ccc(OC(=O)CN(C)C)c(OC(=O)CN(C)C)c1 [Compound G4N, (tetra-O-dimethylglycyl)nordihydroguaiaretic acid] | – | – | – | – | – | – | – | – | – | – | – | – | – | Stability in Milli-Q water (UV spectra) ([2]; HCl salts, 28 days at 20° C., FIG. 1): unstable; Compound decomposed in aqueous solution ([2]; within 24 h): > 96%
8 | COc1ccc(C[C@@H](C)[C@@H](C)Cc2ccc(OC)c(OC)c2)cc1OC [Compound M4N, (tetra-O-methyl)nordihydroguaiaretic acid] | – | – | – | – | – | – | – | – | – | – | – | – | 11.1 µM | –
9 | COc1cc(C[C@H](C)[C@H](C)Cc2ccc(O)c(O)c2)ccc1O [Mal.4] | – | – | – | – | – | – | – | – | – | – | – | – | 25 µM | –
10 | C[C@H](Cc1ccc(O)c(O)c1)[C@@H](C)Cc1ccc(O)c(O)c1 [NDGA, Nordihydroguaiaretic acid] | – | – | – | – | – | – | – | – | – | – | – | – | 20 µM | –
